Common to all, as to test: combination Emax (second highest fraction inhibited in the dose matrix, 72 h); higher = more inhibition; extreme values may be limits of the assay
Assay [1] concerns EKVX (Non-Small Cell Lung Carcinoma). Put shortly:
(§1)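 Bliss excess equals the observed combination effect minus the expected value EA + EB − EA·EB, where EA and EB are the effects of each agent alone. Combination Emax is the second-highest inhibition within the matrix. Inhibition was scaled from CellTiter-Glo 2.0 luminescence, with 0 set by vehicle wells and 1 by blank wells, after 72 hours of two-drug dosing of cells plated in 1536-well plates.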

The subject of assay [2] is SLVL (B-Cell Non-Hodgkin's Lymphoma). A digest of the protocol:
as §1

The test system of assay [3] is H4 (Low Grade Glioma). Put shortly:
as §1

The test system of assay [4] is GDM-1 (Acute Myeloid Leukemia). Put shortly: as §1
Assay [5] deals with BICR78 (Oral Cavity Carcinoma). Put shortly:
as §1

In assay [6] the test system is SNG-M (Endometrial Carcinoma). Put shortly: as §1
Assay [7] deals with Saos-2 (Osteosarcoma). A digest of the protocol: as §1
In assay [8] the test system is U-118-MG (Low Grade Glioma). A digest of the protocol: as §1
Assay [9] concerns NCI-H1688 (Small Cell Lung Carcinoma). Put shortly: as §1
Assay [10] deals with CS1 (Chondrosarcoma). A digest of the protocol:
as §1

Assay [11] deals with D-392MG (Glioblastoma). Put shortly:
as §1

Assay [12] relates to SKN-3 (Head and Neck Carcinoma). A digest of the protocol:
as §1

In assay [13] the test system is HCT-116 (Colorectal Carcinoma). A digest of the protocol: as §1
Assay [14] relates to HLE (Hepatocellular Carcinoma). Put shortly: as §1
Assay [15] concerns HOP-92 (Non-Small Cell Lung Carcinoma). Put shortly:
as §1

The test system of assay [16] is RCC10RGB (Kidney Carcinoma). A digest of the protocol:
as §1

The subject of assay [17] is D-283MED (Other Solid Carcinomas). A digest of the protocol:
as §1

Assay [18] has as its system ETK-1 (Biliary Tract Carcinoma). A digest of the protocol: as §1
The subject of assay [19] is WSU-DLCL2 (B-Cell Non-Hodgkin's Lymphoma). A digest of the protocol:
as §1

Assay [20] has as its system MEG-01 (Chronic Myelogenous Leukemia). Put shortly: as §1

Turning to `CC1(C)CCC(CN2CCN(c3ccc(C(=O)NS(=O)(=O)c4ccc(NCC5CCOCC5)c([N+](=O)[O-])c4)c(Oc4cnc5[nH]ccc5c4)c3)CC2)=C(c2ccc(Cl)cc2)C1` [Venetoclax] + C[C@@H]1COCCN1C2=NC(=NC(=C2)C3(CC3)[S@](=N)(=O)C)C4=C5C=CNC5=NC=C4 [AZD6738] (first compound max 1 µM, 7x7, partner max 10 µM), the “combination Emax” value in assay [1] worked out at 0.214; in assay [2] it was 0.939; in [3] it was 0.768; in assay [4], 0.946; in assay [5], 0.603; in assay [6] it was 0.894. Moreover, the “combination Emax” value is 0.584 in assay [7]; 0.648 in [8]; 0.451 in [9]; 0.701 in [10]; 0.339 in assay [11]; 0.576 in assay [12]. The “combination Emax” value in [13] worked out at 0.671; in assay [14], 0.642; in assay [15], 0.562; in assay [16], 0.5; in [17], 0.954; in assay [18] it was 0.723. Besides, the “combination Emax” value worked out at 0.969 in assay [19] and 0.883 in assay [20].

Regarding `CC1(C)CCC(CN2CCN(c3ccc(C(=O)NS(=O)(=O)c4ccc(NCC5CCOCC5)c([N+](=O)[O-])c4)c(Oc4cnc5[nH]ccc5c4)c3)CC2)=C(c2ccc(Cl)cc2)C1` [Venetoclax] + C[C@@H](Nc1cc(F)cc(F)c1)c1cc(C(=O)N(C)C)cc2c(=O)cc(N3CCOCC3)oc12 [AZD8186] (first compound max 1 µM, 7x7, partner max 3 µM), the “combination Emax” value in [1] worked out at 0.367; in assay [2], 0.746; in assay [3], 0.383; in assay [4], 0.934; in assay [5], 0.434; in assay [6], 0.655. Also, the “combination Emax” value in assay [7] worked out at 0.34; in assay [8], 0.284; in assay [9], 0.191; in [10], 0.415; in [11], 0.139; in [12], 0.148. Moreover, the “combination Emax” value came to 0.0935 in assay [13]; 0.504 in assay [14]; 0.206 in assay [15]; 0.447 in assay [16]; 0.615 in assay [17]; 0.212 in assay [18]. For the same compound, the “combination Emax” value turned out to be 0.888 in assay [19] and 0.646 in [20].

As for `CC1(C)CCC(CN2CCN(c3ccc(C(=O)NS(=O)(=O)c4ccc(NCC5CCOCC5)c([N+](=O)[O-])c4)c(Oc4cnc5[nH]ccc5c4)c3)CC2)=C(c2ccc(Cl)cc2)C1` [Venetoclax] + Cc1cc2ncnn2cc1Nc1ncc2c(n1)n(C1CCOCC1)c(=O)n2C [AZD7648] (first compound max 1 µM, 7x7, partner max 10 µM), the “combination Emax” value in assay [1] is 0.161; in assay [2], 0.709; in [3], 0.322; in [4] it was 0.842; in assay [5] it was 0.265; in assay [6] it was 0.131. The “combination Emax” value in [7] is 0.325; in [8], 0.412; in [9], 0.245; in [10], 0.297; in assay [11], 0.178; in [12], 0.0976. Moreover, the “combination Emax” value was found to be 0.259 in assay [13]; 0.215 in [14]; 0.263 in assay [15]; 0.205 in [16]; 0.673 in [17]; 0.253 in assay [18]. For the same compound, the results for the “combination Emax” value in [19] and in assay [20] were 0.442 and 0.737, respectively.

On to `CC1(C)CCC(CN2CCN(c3ccc(C(=O)NS(=O)(=O)c4ccc(NCC5CCOCC5)c([N+](=O)[O-])c4)c(Oc4cnc5[nH]ccc5c4)c3)CC2)=C(c2ccc(Cl)cc2)C1` [Venetoclax] + Cn1cnc2c(F)c(Nc3ccc(Br)cc3Cl)c(C(=O)NOCCO)cc21 [Selumetinib] (first compound max 1 µM, 7x7, partner max 3 µM), for which the “combination Emax” value in [1] worked out at 0.343; in [2], 0.735; in assay [3], 0.232; in assay [4], 0.735; in [5], 0.323; in assay [6], 0.2. The “combination Emax” value in assay [7] turned out to be 0.299; in assay [8], 0.181; in assay [9], 0.121; in assay [10], 0.278; in assay [11] it was 0.161; in assay [12], 0.286. Besides, the “combination Emax” value in assay [13] amounted to 0.506; in assay [14], 0.191; in assay [15] it was 0.148; in assay [16] it was 0.447; in assay [17], 0.523; in assay [18], 0.165. The “combination Emax” value in assay [19] was determined as 0.375; in [20] it was 0.868.

Source of the values: the supplement of paper PMC11061612.
